The text below walks through data of patent US20030203356A1, “RNase L activator-antisense complexes” (priority 2002, published 2003).

For this data set, the system named is RSV. The experiment in a line: anti-RSV activity in infected HEp-2 cells (reduction of cytopathic effects, neutral red uptake assay). It counts as cell-based, Respiratory Syncytial Virus. The source says:
A comparison of the efficacies of RBI245 treatment and conventional ribarvirin treatment can be obtained by determining the RSV-inhibitory concentration and the cytotoxic concentration of each compound. Cultures of the human laryngeal carcinoma cell line HEp-were established and infected with an MOI=0.02. Treatment with either ribavirin or RBI245 was begun one hour post-infection. The effects of treatment on RSV infection were reported as an EC50, the concentration at which there was a 50% reduction in the observable cytopathic effects of infection. The results of the treatment of HEp-2 cells with RBI245, ribavirin, and other activator-antisense complexes are shown in FIG. 1 and summarized in Table 2. […] Therefore, the activity of RBI245 in vitro is more than 1000-fold better than ribavarin, the only approved drug for the treatment of RSV. No toxicity was found for any of the 2-5A oligonucleotide compounds up to the maximum dosage tested (3.2 μM).
Background: Damage to the host cells serves as the signal in cytopathic effect assays.

Where [1] appears, read: HEp-2 cells infected with RSV, MOI=0.02, treatment begun one hour post-infection, read-out: EC50 in μM (50% Effective dose based on neutral red uptake assay).

Where two headings read alike, the source gives them in different places. Oligonucleotides are written 5' to 3', each unit as a sugar letter and its base; * is a phosphorothioate linkage, no mark a phosphodiester; rarer units and linkages stand in square brackets, end groups in braces. Plain capitals give the bases only. {spA4} = thiophosphorylated 2',5'-linked tetraadenylate (2-5A), RNase L activator; {spA3} = thiophosphorylated 2',5'-linked triadenylate (2-5A), RNase L activator; {S9} = spacer 9 linker, triethylene glycol phosphate; {BU2} = two butanediol phosphate linkers; m = 2'-O-methyl

On to `NC(=O)c1ncn([C@@H]2O[C@H](CO)[C@@H](O)[C@H]2O)n1` [Ribavirin, reference compound], for which the EC50 was 60 µM (human respiratory syncytial virus, 1 h, HEp-2 cells infected with RSV, MOI=0.02, treatment begun one hour post-infection, read-out: EC50 in μM (50% Effective dose based on neutral red uptake assay)) and 60 µM (human respiratory syncytial virus, 1 h, HEp-2 cells, MOI=0.02, treatment one hour post-infection, read-out: EC50, concentration at which there was a 50% reduction in the observable cytopathic effects of infection).

“(spA)3-S9-(AsAsAsAAUGGGGCAsAsA)m-3′ ({spA3}-{S9}-mA*mA*mA*mAmAmUmGmGmGmGmCmA*mA*mA; antisense; 5' 2-5A activator attached via linker) [RBI243, shortened version of 245]”: under setting [1], the EC50 came to 0.3 µM.

Take “spA4-BU2-(GsAsTsAGAAATAGAAAsGsCsA)m-3′ (GATAGAAATAGAAAGCA; antisense; all 2'-O-methyl, linkages s3 o10 s3 (s phosphorothioate, o phosphodiester), 5' {spA4}-{BU2}, T or U not given here; 5' 2-5A activator attached via linker) [RBI066, scrambled control, reference compound]”: the EC50 under setting [1] was over 3.2 µM.

“spA4-BU2-(AsAsAsAAUGGGGCAAAsUsAsA)m3′ ({spA4}-{BU2}-mA*mA*mA*mAmAmUmGmGmGmGmCmAmAmA*mU*mA*mA; antisense; 5' 2-5A activator attached via linker) [RBI034]”: under setting [1], the EC50 amounted to 0.6 µM.

For the molecule “5′sp-A2′s5′A2′s5′A2′s5′A2′-p(CH2CH2O)3-p-5′(AsAsAsAAUGGGGCAAAsUsAsA)m03′ (antisense {spA4}-{S9}-mA*mA*mA*mAmAmUmGmGmGmGmCmAmAmA*mU*mA*mA; 5' 2-5A activator attached via triethylene glycol linker, further chemistry not given here) [RBI245]”, the EC50 (HEp-2 cells, MOI=0.02, treatment one hour post-infection, read-out: EC50, concentration at which there was a 50% reduction in the observable cytopathic effects of infection) stood at 0.02 µM. For the same molecule, the “anti-RSV activity in vitro relative to ribavirin” value (ratio of in vitro potency versus ribavirin) was “more than 1000 fold”.
